From patent US20240368174A1, “Antiviral Heterocyclic Compounds” (Enanta Pharmaceuticals, Inc., priority 2023, published 2024)

Tested on: HMPV clinical isolate A2 strain TN 94-49
Test: HMPV antiviral assay, Method 2 (LLC-MK2 cells with CP-100-356, ATP-Lite)
Type: cell-based
Details: human metapneumovirus, 168 h; hMPV A2 TN/94-49, LLC-MK2 cells with 4 μM CP-100-356, 7 days, ATP-Lite
Method in brief: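 LLC-MK2 rhesus kidney cells (5,000/well) infected in suspension with HMPV A2 TN 94-49 at MOI 0.16, in serum-free medium with final 2 μg/mL TPCK-trypsin and 2 μM CP-100-356. Compounds tested in duplicate from 200 nM, 2.5-fold, 10 points; 7 days at 37 °C. Cell health by ATP-Lite luminescence; EC50 by four-parameter fit.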

| SMILES | EC50 [nM] |
| --- | --- |
| COc1nccc(-c2nc([C@@](O)(CNC(=O)c3cc(OC)c4nn(C5(F)CC5)cc4c3)C3(F)CC3)cc3c2OC[C@]3(C)C(N)=O)c1Cl [Example 654] | < 200 |
| COc1nccc(-c2nc([C@@](O)(CNC(=O)c3cc(OC)c4nn(C(F)F)cc4c3)C3(F)CC3)cc3c2OC[C@]3(C)C(N)=O)c1Cl [Example 655] | < 200 |
| COc1nccc(-c2nc([C@@](O)(CNC(=O)c3cc(OC)n4nc(C5CC5)cc4c3)C3(F)CC3)cc3c2OC[C@]3(C)C(N)=O)c1Cl [Example 656] | < 200 |
| COc1nccc(-c2nc([C@@](O)(CNC(=O)c3cc(OC4CC4)c4nn(C5CC5)cc4c3)C3(F)CC3)cc3c2OC[C@]3(C)C(N)=O)c1Cl [Example 657] | < 200 |
| COc1nccc(-c2nc([C@@](O)(CNC(=O)c3cc(OC4CC4)c4nn(C5(F)CC5)cc4c3)C3(F)CC3)cc3c2OC[C@]3(C)C(N)=O)c1Cl [Example 658] | < 200 |
| COc1nccc(-c2nc([C@@](O)(CNC(=O)c3cc(OC)c4nc(C)c(Cl)cc4c3)c3cccc(F)c3)cc3c2OC[C@]3(C)C(N)=O)c1Cl [Example 659] | < 200 |
| C[C@]1(C(N)=O)COc2c1cc([C@@](O)(CNC(=O)c1cc(Cl)c3nn(C4CC4)cc3c1)C1CC1)nc2-c1cc(C(F)(F)F)ncc1F [Example 660] | < 200 |
| COc1cc(C(=O)NC[C@@](O)(c2ccccc2)c2cc3c(c(-c4ccnc(F)c4Cl)n2)OC[C@]3(C)C(N)=O)cc2cn(C(F)F)nc12 [Example 663] | < 200 |
| COc1cc(C(=O)NC[C@@](O)(c2ccccc2)c2cc3c(c(-c4ccnc(F)c4Cl)n2)OC[C@]3(C)C(N)=O)cn2cc(C3CC3)nc12 [Example 664] | < 200 |
| COc1cc(C(=O)NC[C@](O)(c2cc3c(c(-c4cc(C(F)(F)F)ncc4F)n2)OC[C@]3(C)C(N)=O)C2(F)CC2)cc2cn(C3CC3)nc12 [Example 665] | < 200 |
| COc1cc(C(=O)NC[C@](O)(c2cc3c(c(-c4cc(C(F)(F)F)ncc4F)n2)OC[C@]3(C)C(N)=O)C2(F)CC2)cc2cn(C3(F)CC3)nc12 [Example 666] | < 200 |
| COc1cc(C(=O)NC[C@](O)(c2cc3c(c(-c4cc(C(F)(F)F)ncc4F)n2)OC[C@]3(C)C(N)=O)C2(F)CC2)cc2cn(C(F)F)nc12 [Example 667] | < 200 |
| COc1cc(C(=O)NC[C@](O)(c2cc3c(c(-c4cc(C(F)(F)F)ncc4F)n2)OC[C@]3(C)C(N)=O)C2(F)CC2)cn2cc(C3CC3)nc12 [Example 668] | < 200 |
| COc1cc(C(=O)NC[C@](O)(c2cc3c(c(-c4cc(C(F)(F)F)ncc4F)n2)OC[C@]3(C)C(N)=O)C2(F)CC2)cc2cc(C3CC3)nn12 [Example 669] | < 200 |
| COc1cc(C(=O)NC[C@](O)(c2cc3c(c(-n4ccc5c(F)cccc54)n2)OC[C@]3(C)C(N)=O)C(F)(F)F)cc2sc(N)nc12 [Example 691] | < 200 |
| COc1cc(C(=O)NC[C@@](O)(c2ccccc2)c2cc3c(c(-c4ccnc(C)c4Cl)n2)OC[C@]3(C)C(N)=O)cc2cn(C3CC3)nc12 [Example 692] | < 200 |
| COc1cc(C(=O)NC[C@@](O)(c2ccccc2)c2cc3c(c(-c4ccnc(C)c4Cl)n2)OC[C@]3(C)C(N)=O)cc2cn(C3(F)CC3)nc12 [Example 693] | < 200 |
| COc1cc(C(=O)NC[C@@](O)(c2ccccc2)c2cc3c(c(-c4ccnc(C)c4Cl)n2)OC[C@]3(C)C(N)=O)cc2cn(C(F)F)nc12 [Example 694] | < 200 |
| COc1cc(C(=O)NC[C@@](O)(c2ccccc2)c2cc3c(c(-c4ccnc(C)c4Cl)n2)OC[C@]3(C)C(N)=O)cc2oc(C3CC3)nc12 [Example 695] | < 200 |
| COc1nccc(-c2nc([C@@](O)(CNC(=O)c3cc(OC)c4nn(C5CC5)cc4c3)c3ccc(F)cc3)cc3c2OC[C@]3(C)C(N)=O)c1Cl [Example 696] | < 200 |
| COc1nccc(-c2nc([C@@](O)(CNC(=O)c3cc(OC)c4nn(C5(F)CC5)cc4c3)c3ccc(F)cc3)cc3c2OC[C@]3(C)C(N)=O)c1Cl [Example 697] | < 200 |
| COc1nccc(-c2nc([C@@](O)(CNC(=O)c3cc(OC)c4nn(C(F)F)cc4c3)c3ccc(F)cc3)cc3c2OC[C@]3(C)C(N)=O)c1Cl [Example 698] | < 200 |
| COc1nccc(-c2nc([C@@](O)(CNC(=O)c3cc(OC)c4nc(C5CC5)oc4c3)c3ccc(F)cc3)cc3c2OC[C@]3(C)C(N)=O)c1Cl [Example 699] | < 200 |
| COc1cc(C(=O)NC[C@@](O)(c2cccc(F)c2)c2cc3c(c(-c4ccnc(C)c4Cl)n2)OC[C@]3(C)C(N)=O)cc2cc(Cl)c(C)nc12 [Example 700] | < 200 |
| COc1cc(C(=O)NC[C@](O)(c2cc3c(c(-n4cc5cc(F)ccc5n4)n2)OC[C@]3(C)C(N)=O)C2CC2)cc2cn(C3CC3)nc12 [Example 719] | > 200 |
| COc1cc(C(=O)NC[C@](O)(c2cc3c(c(-c4cc(C5CC5)ncc4F)n2)OC[C@]3(C)C(N)=O)C2CC2)cc2cn(C3CC3)nc12 [Example 723] | < 200 |
| COc1cc(C(=O)NC[C@](O)(c2cc3c(c(-c4c(F)cncc4Cl)n2)OC[C@]3(C)C(N)=O)C2CC2)cc2cn(C3CC3)nc12 [Example 724] | < 200 |

| SMILES | EC50 [nM] |
| --- | --- |
| COc1cc(C(=O)NC[C@](O)(c2cc3c(c(-c4c(C)cncc4F)n2)OC[C@]3(C)C(N)=O)C2CC2)cc2cn(C3CC3)nc12 [Example 725] | < 200 |
| COc1cc(C(=O)NC[C@](O)(c2cc3c(c(-c4c(C)cncc4C)n2)OC[C@]3(C)C(N)=O)C2CC2)cc2cn(C3CC3)nc12 [Example 726] | < 200 |
| COc1cc(C(=O)NC[C@](O)(c2cc3c(c(-c4ccnc5ccccc45)n2)OC[C@]3(C)C(N)=O)C2CC2)cc2cn(C3CC3)nc12 [Example 727] | < 200 |
| COc1cc(C(=O)NC[C@](O)(c2cc3c(c(-c4ccnc5[nH]ccc45)n2)OC[C@]3(C)C(N)=O)C2CC2)cc2cn(C3CC3)nc12 [Example 728] | > 200 |
| COc1cc(C(=O)NC[C@](O)(c2cc3c(c(-c4c(F)cncc4F)n2)OC[C@]3(C)C(N)=O)C2CC2)cc2cn(C3CC3)nc12 [Example 729] | < 200 |
| COc1cc(C(=O)NC[C@](O)(c2cc3c(c(-c4ccnc(C(F)(F)F)c4)n2)OC[C@]3(C)C(N)=O)C2CC2)cc2cn(C(F)F)nc12 [Example 759] | > 200 |
| COc1cc(C(=O)NC[C@](O)(c2cc3c(c(-c4ccnc(C(F)(F)F)c4)n2)OC[C@]3(C)C(N)=O)C2CC2)cc2cn(C3(F)CC3)nc12 [Example 761] | < 200 |
| COc1cc(C(=O)NC[C@](O)(c2cc3c(c(-c4ccnc(C(F)(F)F)c4)n2)OC[C@]3(C)C(N)=O)C2CC2)cc2oc(C3CC3)nc12 [Example 763] | < 200 |
| COc1nccc(-c2nc([C@@](O)(CNC(=O)c3cc(OC)c4nn(C5CC5)cc4c3)C3CC3)cc3c2OC[C@]3(C)C(N)=O)c1Cl [Example 782] | < 200 |
| COc1cc(C(=O)NC[C@](O)(c2cc3c(c(-c4ccnc(C(F)(F)F)c4Cl)n2)OC[C@]3(C)C(N)=O)C(F)(F)F)cc2cn(C(F)F)nc12 [Example 790] | < 200 |
| COc1cc(C(=O)NC[C@](O)(c2cc3c(c(-c4ccnc(C(F)F)c4Cl)n2)OC[C@]3(C)C(N)=O)C(F)(F)F)cc2cn(C(F)F)nc12 [Example 797] | < 200 |
| COc1nccc(-c2nc([C@@](O)(CNC(=O)c3cc(OC)c4nn(C(F)F)cc4c3)C(F)(F)F)cc3c2OC[C@]3(C)C(N)=O)c1Cl [Example 798] | < 200 |
| COc1cc(C(=O)NC[C@](O)(c2cc3c(c(-c4ccnc(C(F)(F)F)c4F)n2)OC[C@]3(C)C(N)=O)C2CC2)cc2cn(C(F)F)nc12 [Example 799] | < 200 |
| COc1nccc(-c2nc([C@@](O)(CNC(=O)c3cc(OC)c4nn(C5CC5)cc4c3)C3CC3)cc3c2OC[C@]3(C)C(N)=O)c1F [Example 802] | < 200 |
| COc1cc(C(=O)NC[C@](O)(c2cc3c(c(-c4ccnc(C(F)F)c4F)n2)OC[C@]3(C)C(N)=O)C2CC2)cc2cn(C3CC3)nc12 [Example 803] | < 200 |
| COc1cc(C(=O)NC[C@](O)(c2cc3c(c(-c4ccnc(OCC(C)C)c4Cl)n2)OC[C@]3(C)C(N)=O)C2CC2)cc2cn(C3CC3)nc12 [Example 804] | > 200 |
| COc1cc(C(=O)NC[C@](O)(c2cc3c(c(-c4ccnc(N5CCOCC5)c4Cl)n2)OC[C@]3(C)C(N)=O)C2CC2)cc2cn(C3CC3)nc12 [Example 805] | > 200 |
| COc1cc(C(=O)NC[C@](O)(c2cc3c(c(-c4ccnc(OC(C)C)c4Cl)n2)OC[C@]3(C)C(N)=O)C2CC2)cc2cn(C3CC3)nc12 [Example 806] | > 200 |
| CCc1nccc(-c2nc([C@@](O)(CNC(=O)c3cc(OC)c4nn(C5CC5)cc4c3)C3CC3)cc3c2OC[C@]3(C)C(N)=O)c1Cl [Example 807] | < 200 |
| COc1cc(C(=O)NC[C@](O)(c2cc3c(c(-c4cccc(C(=O)O)c4Cl)n2)OC[C@]3(C)C(N)=O)C2CC2)cc2cn(C3CC3)nc12 [Example 808] | > 200 |
| COc1cc(C(=O)NC[C@](O)(c2cc3c(c(-c4cccc(C(=O)N(C)C)c4Cl)n2)OC[C@]3(C)C(N)=O)C2CC2)cc2cn(C3CC3)nc12 [Example 809] | > 200 |
| COc1cc(C(=O)NC[C@](O)(c2cc3c(c(-c4ccnc(C(C)C)c4Cl)n2)OC[C@]3(C)C(N)=O)C2CC2)cc2cn(C3CC3)nc12 [Example 810] | < 200 |
| COc1cc(C(=O)NC[C@](O)(c2cc3c(c(-c4ccnc(N(C)C)c4Cl)n2)OC[C@]3(C)C(N)=O)C2CC2)cc2cn(C3CC3)nc12 [Example 811] | < 200 |
| COc1cc(C(=O)NC[C@](O)(c2cc3c(c(-c4ccnc5c4OCCO5)n2)OC[C@]3(C)C(N)=O)C2CC2)cc2cn(C3CC3)nc12 [Example 812] | > 200 |
| COc1nccc(-c2nc([C@@](O)(CNC(=O)c3cc(OC)c4nn(C5CC5)cc4c3)C3CC3)cc3c2OC[C@]3(C)C(N)=O)c1OC [Example 813] | > 200 |
| COc1cc(C(=O)NC[C@](O)(c2cc3c(c(-c4ccnc(Cl)c4C)n2)OC[C@]3(C)C(N)=O)C2CC2)cc2cn(C3CC3)nc12 [Example 815] | < 200 |
